Patent publication US7915291B2, “Hepatitis C virus inhibitors” (Bristol-Myers Squibb Company, priority 2002, dated 2011)

Columns and labels:
[1] = tested on: HCV replicon in Huh7 cells; assay: HCV replicon cell-based assay; parameters: species or system HCV strain 1B; settings: Hepatitis C virus, Huh-7; HCV replicon, Huh7 cells; read-out: EC50 range
[2] = molecular target: HCV NS3/4A protease complex, BMS strain (UniProt P27958, C1454S/C1711G, species not given/STRAIN_BMS); assay: Recombinant HCV NS3/4A protease complex FRET peptide assay (BMS strain); assay type: biochemical, HCV genotype 1a; settings: NS3/4A BMS strain; read-out: IC50 range
Procedure, shortened: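 Recombinant BMS-strain NS3/4A (His-tagged NS4A with three-lysine tail, E. coli) at 2-3 nM preincubated 1 min with compound, then 2 μM ester-linked NS4A/NS4B-based FRET peptide added. Fluorescence followed in real time ~15 min at 25° C. Percent inhibition from slope of linear fluorescence change versus no-compound control.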

SMILES | EC50 [1] [nM] | IC50 [2] [nM]
C=C[C@@H]1C[C@]1(NC(=O)[C@@H]1C[C@@H](Oc2nccc3ccccc23)CN1C(=O)[C@@H](NC(=O)Oc1ccccc1OC)C(C)(C)C)C(=O)NS(=O)(=O)C1CC1 [Compound 127] | 100 to 1000 | < 100
C=C[C@@H]1C[C@]1(NC(=O)[C@@H]1C[C@@H](Oc2nccc3ccccc23)CN1C(=O)[C@@H](NC(=O)O[C@@H]1C[C@H](C)CC[C@H]1C(C)C)C(C)(C)C)C(=O)NS(=O)(=O)C1CC1 [Compound 128] | 100 to 1000 | < 100
C=C[C@@H]1C[C@]1(NC(=O)[C@@H]1C[C@@H](Oc2nccc3ccccc23)CN1C(=O)[C@@H](NC(=O)OCCCCCC)C(C)(C)C)C(=O)NS(=O)(=O)C1CC1 [Compound 129] | 100 to 1000 | 100 to 1000
C=C[C@@H]1C[C@]1(NC(=O)[C@@H]1C[C@@H](Oc2nccc3ccccc23)CN1C(=O)[C@@H](NC(=O)CC(C)(C)C)C(C)(C)C)C(=O)NS(=O)(=O)C1CC1 [Compound 130] | 100 to 1000 | < 100
C=C[C@@H]1C[C@]1(NC(=O)[C@@H]1C[C@@H](Oc2nccc3ccccc23)CN1C(=O)[C@@H](NC(=O)COC)C(C)(C)C)C(=O)NS(=O)(=O)C1CC1 [Compound 131] | 1000 to 10000 | 100 to 1000
C=C[C@@H]1C[C@]1(NC(=O)[C@@H]1C[C@@H](Oc2nccc3ccccc23)CN1C(=O)[C@@H](NC(=O)CCOC)C(C)(C)C)C(=O)NS(=O)(=O)C1CC1 [Compound 132] | 1000 to 10000 | < 100
C=C[C@@H]1C[C@]1(NC(=O)[C@@H]1C[C@@H](Oc2nccc3ccccc23)CN1C(=O)[C@@H](NC(=O)[C@@H]1COc2ccccc2O1)C(C)(C)C)C(=O)NS(=O)(=O)C1CC1 [Compound 133] | 1000 to 10000 | 100 to 1000
C=C[C@@H]1C[C@]1(NC(=O)[C@@H]1C[C@@H](Oc2nccc3cc(OC)ccc23)CN1C(=O)[C@@H](NC(=O)OC(C)(C)C)c1ccccc1)C(=O)NS(=O)(=O)C1CC1 [Compound 134] | 100 to 1000 | < 100
C=C[C@@H]1C[C@]1(NC(=O)[C@@H]1C[C@@H](Oc2nccc3cc(OC)ccc23)CN1C(=O)[C@H](CC(=O)OCc1ccccc1)NC(=O)OC(C)(C)C)C(=O)NS(=O)(=O)C1CC1 [Compound 137] | < 100 | < 100
C=C[C@@H]1C[C@]1(NC(=O)[C@@H]1C[C@@H](Oc2nccc3cc(OC)ccc23)CN1C(=O)[C@H](CC(=O)OC)NC(=O)OC(C)(C)C)C(=O)NS(=O)(=O)C1CC1 [Compound 138] | < 100 | < 100
C=C[C@@H]1C[C@]1(NC(=O)[C@@H]1C[C@@H](Oc2nccc3cc(OC)ccc23)CN1C(=O)[C@H](CC(=O)OC(C)(C)C)NC(=O)OC(C)(C)C)C(=O)NS(=O)(=O)C1CC1 [Compound 139] | 100 to 1000 | < 100
C=C[C@@H]1C[C@]1(NC(=O)[C@@H]1C[C@@H](Oc2nccc3cc(OC)ccc23)CN1C(=O)[C@H](CC(=O)O)NC(=O)OC(C)(C)C)C(=O)NS(=O)(=O)C1CC1 [Compound 140] | 1000 to 10000 | < 100
C=C[C@@H]1C[C@]1(NC(=O)[C@@H]1C[C@@H](Oc2nccc3cc(OC)ccc23)CN1C(=O)C(NC(=O)N[C@H](C(=O)OC)C(C)C)C(C)(C)C)C(=O)NS(=O)(=O)C1CC1 (stereo partly shown) [Compound 141] | < 100 | < 100
C=C[C@@H]1C[C@]1(NC(=O)[C@@H]1C[C@@H](Oc2nccc3cc(OC)ccc23)CN1C(=O)[C@@H](NC(=O)N[C@@H](C(=O)OC)C(C)C)C(C)(C)C)C(=O)NS(=O)(=O)C1CC1 [Compound 142] | < 100 | < 100
C=C[C@@H]1C[C@]1(NC(=O)[C@@H]1C[C@@H](Oc2nccc3cc(OC)ccc23)CN1C(=O)[C@@H](NC(=O)OC(C)(C)C)C1CCCCC1)C(=O)NS(=O)(=O)C1CC1 [Compound 143] | < 100 | < 100
C=C[C@@H]1C[C@]1(NC(=O)[C@@H]1C[C@@H](Oc2nccc3cc(OC)ccc23)CN1C(=O)[C@@H](NC(=O)NCC(=O)OC)C(C)(C)C)C(=O)NS(=O)(=O)C1CC1 [Compound 144] | 100 to 1000 | < 100

SMILES | EC50 [1] [nM] | IC50 [2] [nM]
C=C[C@@H]1C[C@]1(NC(=O)[C@@H]1C[C@@H](Oc2nccc3cc(OC)ccc23)CN1C(=O)[C@@H](NC(=O)N[C@@H](C)C(=O)OC)C(C)(C)C)C(=O)NS(=O)(=O)C1CC1 [Compound 145] | 100 to 1000 | < 100
C=C[C@@H]1C[C@]1(NC(=O)[C@@H]1C[C@@H](Oc2nccc3cc(OC)ccc23)CN1C(=O)[C@@H](NC(=O)N[C@@H](Cc1c[nH]cn1)C(=O)OC)C(C)(C)C)C(=O)NS(=O)(=O)C1CC1 [Compound 147] | 1000 to 10000 | < 100
C=C[C@@H]1C[C@]1(NC(=O)[C@@H]1C[C@@H](Oc2nccc3cc(OC)ccc23)CN1C(=O)[C@@H](NC(=O)N[C@H](C(=O)OCC)C(C)C)C(C)(C)C)C(=O)NS(=O)(=O)C1CC1 [Compound 148] | < 100 | < 100
C=C[C@@H]1C[C@]1(NC(=O)[C@@H]1C[C@@H](Oc2nccc3cc(OC)ccc23)CN1C(=O)[C@@H](NC(=O)OC(C)(C)C)C1CCCC1)C(=O)NS(=O)(=O)C1CC1 [Compound 149] | < 100 | < 100
C=C[C@@H]1C[C@]1(NC(=O)[C@@H]1C[C@@H](Oc2nccc3cc(OC)ccc23)CN1C(=O)[C@@H](NC(=O)N[C@H](C(=O)OCc1ccccc1)C(C)C)C(C)(C)C)C(=O)NS(=O)(=O)C1CC1 [Compound 150] | < 100 | < 100
C=C[C@@H]1C[C@]1(NC(=O)[C@@H]1C[C@@H](Oc2nccc3cc(OC)ccc23)CN1C(=O)[C@@H](NC(=O)N[C@H](C(=O)OC)[C@@H](C)CC)C(C)(C)C)C(=O)NS(=O)(=O)C1CC1 [Compound 151] | < 100 | < 100
C=C[C@@H]1C[C@]1(NC(=O)[C@@H]1C[C@@H](Oc2nccc3cc(OC)ccc23)CN1C(=O)[C@@H](NC(=O)N[C@H](C(=O)OC(C)(C)C)C(C)C)C(C)(C)C)C(=O)NS(=O)(=O)C1CC1 [Compound 152] | < 100 | < 100
C=C[C@@H]1C[C@]1(NC(=O)[C@@H]1C[C@@H](Oc2nccc3cc(OC)ccc23)CN1C(=O)[C@@H](NC(=O)N(C)[C@H](C(=O)OC)C(C)C)C(C)(C)C)C(=O)NS(=O)(=O)C1CC1 [Compound 154] | 100 to 1000 | < 100
C=C[C@@H]1C[C@]1(NC(=O)[C@@H]1C[C@@H](Oc2nccc3cc(OC)ccc23)CN1C(=O)[C@@H](NC(=O)OC(C)(C)C(F)(F)F)C(C)(C)C)C(=O)NS(=O)(=O)C1CC1 [Compound 155] | < 100 | < 100
C=CC1C[C@]1(NC(=O)[C@@H]1C[C@@H](Oc2cc(C(F)(F)F)nc3ccccc23)CN1C(=O)[C@@H](NC(=O)OC(C)(C)C)C(C)(C)C)C(=O)NS(=O)(=O)C1CC1 (stereo partly drawn) [Compound 180, BOCNH-P3(L-tert-BuGly)-P2[(4R)-(2-trifluoromethyl quinolin-4-oxo)-S-proline]-P1(1R,2S Vinyl Acca)-CONHSO2-Cyclopropane] | 100 to 1000 | < 100
C=CC1C[C@]1(NC(=O)[C@@H]1C[C@@H](Oc2cc(C(F)(F)F)nc3c(C(F)(F)F)cccc23)CN1C(=O)[C@@H](NC(=O)OC(C)(C)C)C(C)(C)C)C(=O)NS(=O)(=O)C1CC1 (stereo partly drawn) [Compound 181, BOCNH-P3(L-tert-BuGly)-P2[(4R)-(2,8-bistrifluoromethyl quinolin-4-oxo)-S-proline]-P1(1R,2S Vinyl Acca)-CONHSO2-Cyclopropane] | 100 to 1000 | < 100
C=CC1C[C@]1(NC(=O)[C@@H]1C[C@@H](Oc2cc(C(F)(F)F)nc3c(OC(F)(F)F)cccc23)CN1C(=O)[C@@H](NC(=O)OC(C)(C)C)C(C)(C)C)C(=O)NS(=O)(=O)C1CC1 (stereo partly drawn) [Compound 182, BOCNH-P3(L-tert-BuGly)-P2[(4R)-(2-trifluoromethyl, 8-trifluoromethoxy quinolin-4-oxo)-S-proline]-P1(1R,2S Vinyl Acca)-CONHSO2-Cyclopropane] | 100 to 1000 | < 100
C=CC1C[C@]1(NC(=O)[C@@H]1C[C@@H](Oc2cc(C(F)(F)F)nc3c(Cl)cccc23)CN1C(=O)[C@@H](NC(=O)OC(C)(C)C)C(C)(C)C)C(=O)NS(=O)(=O)C1CC1 (stereo partly drawn) [Compound 183, BOCNH-P3(L-tert-BuGly)-P2[(4R)-(2-trifluoromethyl, 8-chloro quinolin-4-oxo)-S-proline]-P1(1R,2S Vinyl Acca)-CONHSO2-Cyclopropane] | < 100 | < 100
C=CC1C[C@]1(NC(=O)[C@@H]1C[C@@H](Oc2ccnc3cc(C(F)(F)F)ccc23)CN1C(=O)[C@@H](NC(=O)OC(C)(C)C)C(C)(C)C)C(=O)NS(=O)(=O)C1CC1 (stereo partly drawn) [Compound 185, BOCNH-P3(L-tert-BuGly)-P2[(4R)-(7-trifluoromethyl quinolin-4-oxo)-S-proline]-P1(1R,2S Vinyl Acca)-CONHSO2-Cyclopropane] | < 100 | < 100
C=CC1C[C@]1(NC(=O)[C@@H]1C[C@@H](Oc2ccnc3c(C(F)(F)F)cccc23)CN1C(=O)[C@@H](NC(=O)OC(C)(C)C)C(C)(C)C)C(=O)NS(=O)(=O)C1CC1 (stereo partly drawn) [Compound 186, BOCNH-P3(L-tert-BuGly)-P2[(4R)-(8-trifluoromethyl quinolin-4-oxo)-S-proline]-P1(1R,2S Vinyl Acca)-CONHSO2-Cyclopropane] | < 100 | < 100
C=CC1C[C@]1(NC(=O)[C@@H]1C[C@@H](Oc2nccc3cc(F)ccc23)CN1C(=O)[C@@H](NC(=O)OC(C)(C)C)C(C)(C)C)C(=O)NS(=O)(=O)C1CC1 (stereo partly drawn) [Compound 187, BOCNH-P3(L-tert-BuGly)-P2[(4R)-(6-fluoro isoquinolin-1-oxo)-S -proline]-P1(1R,2S Vinyl Acca)-CONHSO2-Cyclopropane] | 100 to 1000 | < 100
